The values that follow come from patent publication US20250346569A1, “NEW DERIVATIVES FOR TREATING TRPM3 MEDIATED DISORDERS” (Katholieke Universiteit Leuven, priority 2022, published 2025).

SMILES strings stand for the structures.

For the assay, the target named is T1, mouse TRPM3α2 (mTRPM3) ion channel (Mus musculus, UniProt J9SQF3).
T1 construct: expressed in transfected cells; host or cells: flip-in HEK293
T1 sequence (J9SQF3 1-1709 isoform J9SQF3-12): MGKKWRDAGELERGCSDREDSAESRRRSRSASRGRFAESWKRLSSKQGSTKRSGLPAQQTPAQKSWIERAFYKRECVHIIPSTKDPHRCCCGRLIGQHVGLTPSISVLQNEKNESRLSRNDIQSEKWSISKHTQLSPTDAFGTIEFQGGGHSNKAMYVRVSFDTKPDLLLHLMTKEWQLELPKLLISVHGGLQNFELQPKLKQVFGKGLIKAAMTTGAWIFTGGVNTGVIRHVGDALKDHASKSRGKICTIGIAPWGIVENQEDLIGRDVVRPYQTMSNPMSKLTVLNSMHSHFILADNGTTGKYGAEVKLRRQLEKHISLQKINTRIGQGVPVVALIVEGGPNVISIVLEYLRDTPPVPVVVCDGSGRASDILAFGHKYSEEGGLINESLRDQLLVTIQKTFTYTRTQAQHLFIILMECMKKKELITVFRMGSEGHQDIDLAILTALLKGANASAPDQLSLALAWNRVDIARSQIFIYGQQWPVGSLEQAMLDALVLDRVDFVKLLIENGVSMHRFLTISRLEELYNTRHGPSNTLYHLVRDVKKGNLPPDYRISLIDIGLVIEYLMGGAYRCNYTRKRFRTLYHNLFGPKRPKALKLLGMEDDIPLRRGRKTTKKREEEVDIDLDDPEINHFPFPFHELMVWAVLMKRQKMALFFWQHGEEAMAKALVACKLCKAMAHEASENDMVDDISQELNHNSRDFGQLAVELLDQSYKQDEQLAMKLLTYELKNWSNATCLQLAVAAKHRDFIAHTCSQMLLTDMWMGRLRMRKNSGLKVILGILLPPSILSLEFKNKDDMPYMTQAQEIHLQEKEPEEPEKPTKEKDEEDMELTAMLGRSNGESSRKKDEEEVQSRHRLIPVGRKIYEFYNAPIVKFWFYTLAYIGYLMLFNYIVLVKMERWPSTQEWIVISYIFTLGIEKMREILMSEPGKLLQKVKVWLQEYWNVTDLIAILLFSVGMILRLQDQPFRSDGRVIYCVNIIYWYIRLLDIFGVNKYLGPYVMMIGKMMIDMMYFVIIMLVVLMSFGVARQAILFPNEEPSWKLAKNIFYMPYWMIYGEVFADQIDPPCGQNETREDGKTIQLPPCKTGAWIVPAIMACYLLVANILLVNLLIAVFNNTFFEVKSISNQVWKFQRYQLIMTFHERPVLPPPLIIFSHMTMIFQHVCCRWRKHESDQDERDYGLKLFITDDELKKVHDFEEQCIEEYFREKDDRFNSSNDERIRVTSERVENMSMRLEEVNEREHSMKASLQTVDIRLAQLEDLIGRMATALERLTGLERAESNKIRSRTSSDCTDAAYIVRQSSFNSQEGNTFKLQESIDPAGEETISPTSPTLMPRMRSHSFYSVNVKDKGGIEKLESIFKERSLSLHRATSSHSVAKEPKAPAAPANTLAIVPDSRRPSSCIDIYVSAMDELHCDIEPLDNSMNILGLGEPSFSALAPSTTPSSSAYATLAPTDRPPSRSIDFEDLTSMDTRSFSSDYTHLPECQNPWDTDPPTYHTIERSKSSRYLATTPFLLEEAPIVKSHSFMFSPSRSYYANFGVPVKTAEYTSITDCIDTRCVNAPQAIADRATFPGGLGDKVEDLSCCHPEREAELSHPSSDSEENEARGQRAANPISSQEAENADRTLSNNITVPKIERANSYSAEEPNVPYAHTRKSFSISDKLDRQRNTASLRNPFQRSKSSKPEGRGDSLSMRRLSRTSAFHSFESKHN
Briefly: Monitoring the TRPM3 ion channel driven Ca2+ uptake (Fluo-4 AM assay). The following applies: TRPM3 overexpressing flip-in HEK293 cells, channel stimulated with Pregnenolone sulfate (PS) 50 μM. It counts as cell-based. How it is done:
Monitoring the TRPM3 ion channel driven Ca^2+ uptake.
In order to monitor the inhibition of the mouse TRPM3α2 (mTRPM3) ion channel by the compounds of the invention, a cellular system making use of an mTRPM3alpha2 or hTRPM3 overexpressing cell line (flip-in HEK293) was used. The TRPM3 channel was stimulated/opened with Pregnenolone sulfate (PS) (50 μM) which results in Ca^2+ influx.
For mTRPM3, the intracellular Ca^2+ was measured with a Calcium responsive dye, Fluor-4 AM ester (Invitrogen). Cells were cultured until a confluence of 80-90%, washed with Versene (Invitrogen) and detached from the surface by a short incubation with 0.05% Trypsin (Invitrogen). The trypsination process was stopped by the addition of complete cell culture medium (DMEM, glutamax,10% FCS,NEAA,Pen-Strep). Cells were collected and resuspended in Krebs buffer without Calcium at RT.
Prior the cell seeding (±2000 cells/well into a black, 384 well plate (Greiner)) the diluted compound was added in the assay plate, together with the PS dissolved in Krebs buffer containing Calcium. […] Directly after cell addition the plates were read on an Envision fluorescence reader (Perkin Elmer) by an Excitation of 485 nm and emission at 535 nm.
Channel inhibition was calculated compared to a non-PS stimulated control versus a condition stimulated with PS (50 μM) with vehicle. The ability of the compounds of the invention to inhibit this activity was determined as: Percentage inhibition=[1−((RFU determined for sample with test compound present−RFU determined for sample with positive control inhibitor) divided by (RFU determined in the presence of vehicle−RFU determined for sample with positive control inhibitor))]*100.
The activities of the Example compounds tested are depicted in the table below. The activity ranges A, B and C refer to IC50 values in the Fluo-4 AM assay as follows: “A”: IC50<1 μM; “B”: 1 μM≤IC50≤20 μM and “C”: IC50>20 μM
The IC50 is the concentration that inhibits the measured activity by half. Compound `Cn1ccc(NC(=O)c2c(C(F)F)sc3ccc(OCc4ccccc4)cc23)n1` [Cpd 131, 5-(benzyloxy)-2-(difluoromethyl)-N-(1-methyl-1H-pyrazol-3-yl)-1-benzothiophene-3-carboxamide] had an IC50 of 1000 to 20000 nM. Compound `COc1ncccc1COc1ccc2sc(C)c(C(=O)NC3(CO)CCC3)c2c1` [Cpd 143, N-[1-(hydroxymethyl)cyclobutyl]-5-[(2-methoxypyridin-3-yl)methoxy]-2-methyl-1-benzothiophene-3-carboxamide] yielded an IC50 of less than 1000 nM. As for `Cc1sc2ccc(OCc3ccccc3F)cc2c1C(=O)N[C@@H](C)C(N)=O` [Cpd 007, (2S)-2-({5-[(2-fluorophenyl)methoxy]-2-methyl-1-benzothiophen-3-yl}formamido)propanamide], the IC50 is less than 1000 nM. `Cc1sc2ccc(OCc3ccccn3)cc2c1C(=O)NC1(C(N)=O)COC1` [Cpd 088, 3-{2-methyl-5-[(pyridin-2-yl)methoxy]-1-benzothiophene-3-amido}oxetane-3-carboxamide] came in with a 50% inhibitory concentration (IC50) of less than 1000 nM. The figure for `Cc1sc2ccc(OCc3cccnc3O)cc2c1C(=O)NC(C)(C)C(N)=O` [Cpd 066, 2-({5-[(2-hydroxypyridin-3-yl)methoxy]-2-methyl-1-benzothiophen-3-yl}formamido)-2-methylpropanamide] is less than 1000 nM.

For the compound `Cc1sc2ccc(OCc3ccccn3)cc2c1C(=O)NC1(C(N)=O)CCOCC1` [Cpd 071, 4-{2-methyl-5-[(pyridin-2-yl)methoxy]-1-benzothiophene-3-amido}oxane-4-carboxamide], the half-inhibitory concentration (IC50) is less than 1000 nM. The figure for `O=C(NC1(CO)CCOCC1)c1c(C(F)F)sc2ccc(OCc3ccccc3)cc12` [Cpd 152, 5-(benzyloxy)-2-(difluoromethyl)-N-[4-(hydroxymethyl)oxan-4-yl]-1-benzothiophene-3-carboxamide] is greater than 20000 nM. The result for `Cc1ncc(COc2ccc3sc(C)c(C(=O)NC4(CO)CCOCC4)c3c2)s1` [Cpd 024, N-[4-(hydroxymethyl)oxan-4-yl]-2-methyl-5-[(2-methyl-1,3-thiazol-5-yl)methoxy]-1-benzothiophene-3-carboxamide] reads 1000 to 20000 nM. The result for `Cc1ncsc1COc1ccc2sc(C)c(C(=O)NC3CCOC3)c2c1` (centres unmarked) [Cpd 043, 2-methyl-5-[(4-methyl-1,3-thiazol-5-yl)methoxy]-N-(oxolan-3-yl)-1-benzothiophene-3-carboxamide] reads less than 1000 nM; that for `Cc1sc2ccc(OCc3ccccc3)cc2c1C(=O)NCCN1CCOC1=O` [Cpd 106, 5-(benzyloxy)-2-methyl-N-[2-(2-oxo-1,3-oxazolidin-3-yl)ethyl]-1-benzothiophene-3-carboxamide], 1000 to 20000 nM. For the compound `Cc1sc2ccc(OCc3ccccc3F)cc2c1C(=O)NC1CCNC1=O` (centres unmarked) [Cpd 093, 5-[(2-fluorophenyl)methoxy]-2-methyl-N-(2-oxopyrrolidin-3-yl)-1-benzothiophene-3-carboxamide], the half-inhibitory concentration (IC50) is less than 1000 nM. The figure for `Cc1sc2ccc(OCc3ccccn3)cc2c1C(=O)N[C@@H](C)C(N)=O` [Cpd 008, (2S)-2-({2-methyl-5-[(pyridin-2-yl)methoxy]-1-benzothiophen-3-yl}formamido)propanamide] is less than 1000 nM. The result for `Cc1sc2ccc(OCc3ccccc3F)cc2c1C(=O)NC1(CO)CC1` [Cpd 074, 5-[(2-fluorophenyl)methoxy]-N-[1-(hydroxymethyl)cyclopropyl]-2-methyl-1-benzothiophene-3-carboxamide] reads less than 1000 nM; that for `Cc1sc2ccc(OCc3cccnc3C(F)(F)F)cc2c1C(=O)NCC(C)(C)N1CCOCC1` [Cpd 099, 2-methyl-N-[2-methyl-2-(morpholin-4-yl)propyl]-5-{[2-(trifluoromethyl)pyridin-3-yl]methoxy}-1-benzothiophene-3-carboxamide], 1000 to 20000 nM.

`CNC(=O)c1c(C)sc2ccc(OCc3scnc3C)cc12` [Cpd 137, N,2-dimethyl-5-[(4-methyl-1,3-thiazol-5-yl)methoxy]-1-benzothiophene-3-carboxamide]: the IC50 fell in the range of 1000 to 20000 nM.

As to `Cc1sc2ccc(OCC3CCOCC3)cc2c1C(=O)NC(C)(CO)C(N)=O` (single isomer, unassigned) [Cpd 067 - En2, 3-hydroxy-2-methyl-2-({2-methyl-5-[(oxan-4-yl)methoxy]-1-benzothiophen-3-yl}formamido)propanamide], the half-maximal inhibitory concentration (IC50) was in the range of 1000 to 20000 nM. `Cc1sc2ccc(OCc3cccnc3C(F)(F)F)cc2c1C(=O)NC1(CO)CCOCC1` [Cpd 083, N-[4-(hydroxymethyl)oxan-4-yl]-2-methyl-5-{[2-(trifluoromethyl)pyridin-3-yl]methoxy}-1-benzothiophene-3-carboxamide] came in with an IC50 of 1000 to 20000 nM. In turn, `CNC(=O)C(C)(CO)NC(=O)c1c(C)sc2ccc(OCc3cnc(C)s3)cc12` (single isomer, unassigned) [Cpd 132 - En2, 3-hydroxy-N,2-dimethyl-2-({2-methyl-5-[(2-methyl-1,3-thiazol-5-yl)methoxy]-1-benzothiophen-3-yl}formamido)propanamide] returned an IC50 of less than 1000 nM. The result for `CNC(=O)c1c(C)sc2ccc(OCc3ccccc3)cc12` [Cpd 134, 5-(benzyloxy)-N,2-dimethyl-1-benzothiophene-3-carboxamide] reads greater than 20000 nM; that for `Cc1sc2ccc(OCc3cccnc3C(F)(F)F)cc2c1C(=O)NCC1CCC(=O)N1` (centres unmarked) [Cpd 103, 2-methyl-N-[(5-oxopyrrolidin-2-yl)methyl]-5-{[2-(trifluoromethyl)pyridin-3-yl]methoxy}-1-benzothiophene-3-carboxamide], less than 1000 nM.

In the case of `Cc1sc2ccc(OCc3ccccc3)cc2c1C(=O)O` [Cpd 108, 5-(benzyloxy)-2-methyl-1-benzothiophene-3-carboxylic acid], the IC50 was less than 1000 nM. `Cc1ncsc1COc1ccc2sc(C)c(C(=O)NCc3cccc(O)n3)c2c1` [Cpd 047, N-[(6-hydroxypyridin-2-yl)methyl]-2-methyl-5-[(4-methyl-1,3-thiazol-5-yl)methoxy]-1-benzothiophene-3-carboxamide] came in with an IC50 of less than 1000 nM. In the case of `Cc1sc2ccc(OCc3ccccn3)cc2c1C(=O)N[C@@H](CO)C(N)=O` [Cpd 052, (2S)-3-hydroxy-2-({2-methyl-5-[(pyridin-2-yl)methoxy]-1-benzothiophen-3-yl}formamido)propanamide], the IC50 was less than 1000 nM.

`Cc1ncsc1COc1ccc2sc(C)c(C(=O)NC3CCNCC3(F)F)c2c1` (single isomer, unassigned) [Cpd 042 - En1, N-(3,3-difluoropiperidin-4-yl)-2-methyl-5-[(4-methyl-1,3-thiazol-5-yl)methoxy]-1-benzothiophene-3-carboxamide] had a 50% inhibitory concentration (IC50) of less than 1000 nM. The result for `Cc1sc2ccc(OCc3cccnc3C(F)(F)F)cc2c1C(=O)N[C@H](C)C(N)=O` [Cpd 004, (2R)-2-[(2-methyl-5-{[2-(trifluoromethyl)pyridin-3-yl]methoxy}-1-benzothiophen-3-yl)formamido]propanamide] reads less than 1000 nM. The result for `Cc1sc2ccc(OCc3cccnc3C(F)(F)F)cc2c1C(=O)NC1CCN(C)C1` (centres unmarked) [Cpd 125, 2-methyl-N-(1-methylpyrrolidin-3-yl)-5-{[2-(trifluoromethyl)pyridin-3-yl]methoxy}-1-benzothiophene-3-carboxamide] reads less than 1000 nM; that for `O=C(NCc1cccc(O)n1)c1c(C(F)F)sc2ccc(OCc3ccccc3)cc12` [Cpd 151, 5-(benzyloxy)-2-(difluoromethyl)-N-[(6-hydroxypyridin-2-yl)methyl]-1-benzothiophene-3-carboxamide], greater than 20000 nM. The result for `Cc1sc2ccc(OCc3ccccc3)cc2c1C(=O)NC1(CO)CCOCC1` [Cpd 080, 5-(benzyloxy)-N-[4-(hydroxymethyl)oxan-4-yl]-2-methyl-1-benzothiophene-3-carboxamide] reads 1000 to 20000 nM; that for `Cc1sc2ccc(OCc3cccnc3O)cc2c1C(=O)NC1(CO)CCC1` [Cpd 079, N-[1-(hydroxymethyl)cyclobutyl]-5-[(2-hydroxypyridin-3-yl)methoxy]-2-methyl-1-benzothiophene-3-carboxamide], 1000 to 20000 nM; that for `Cc1sc2ccc(OCc3ccccc3)cc2c1C(=O)N[C@H](C)C(N)=O` [Cpd 001, (2R)-2-{[5-(benzyloxy)-2-methyl-1-benzothiophen-3-yl]formamido}propanamide], less than 1000 nM. Consider `CNC(=O)C1(NC(=O)c2c(C)sc3ccc(OCc4cnc(C)s4)cc23)CCOC1` (single isomer, unassigned) [Cpd 133 - En2, N-methyl-3-{2-methyl-5-[(2-methyl-1,3-thiazol-5-yl)methoxy]-1-benzothiophene-3-amido}oxolane-3-carboxamide], for which the IC50 was less than 1000 nM. In the case of `Cc1ncsc1COc1ccc2sc(C)c(C(=O)NC3(CO)CCC3)c2c1` [Cpd 035, N-[1-(hydroxymethyl)cyclobutyl]-2-methyl-5-[(4-methyl-1,3-thiazol-5-yl)methoxy]-1-benzothiophene-3-carboxamide], the concentration for half-maximal inhibition (IC50) was less than 1000 nM.
